# Values quoted from earlier work as cited in US20030003095A1, “Activated carbon for preventing pregnancy and sexually transmitted disease” (The Procter & Gamble Company, priority 2002, published 2003).
# Conditions: stated in words, no test described
row,water solubility,Molecule
1,water insoluble,Oc1cc(Cl)ccc1Oc1ccc(Cl)cc1Cl [triclosan]
2,water-soluble,N=C(NCCCCCCNC(=N)NC(=N)Nc1ccc(Cl)cc1)NC(=N)Nc1ccc(Cl)cc1.O=C(O)[C@H](O)[C@@H](O)[C@H](O)[C@H](O)CO.O=C(O)[C@H](O)[C@@H](O)[C@H](O)[C@H](O)CO [chlorhexidene digluconate]

row,Molecule,water solubility
1,nonoxynol-9,slightly water soluble
